In experiment [1] the target is T1, rodent sweet taste receptor (Rattus norvegicus, UniProt Q923K1).
T1 construct: expressed in transfected cells; host or cells: HEK293T cells stably expressing G16Gust44
Briefly: Calcium response, rodent sweet taste receptor. In kind it is cell-based. The text has this:
In order to elucidate the putative binding site for NHDC, we cotransfected mixtures of plasmid DNAs for the rat and human TAS1R2 and TAS1R3 receptor subunits in HEK293T cells stably expressing the chimeric G-protein G16Gust44 and measured cellular calcium responses by fluorometry following bath application of various sweet tasting compounds.
Figure 1 Chemical structure and calcium responses elicited by neohesperidin dihydrochalcone. (A) Structure of neohesperidin dihydrochalcone. Numbers denote carbon atom positions. […]
The cDNAs for TAS1Rs tagged at the C-terminus with the herpes simplex virus glycoprotein D (HSV) were transiently transfected into HEK293T cells stably expressing the chimeric G-protein subunit G16Gust44 [44] using Lipofectamine 2000 (Invitrogen, Carlsbad, CA) according to the manufacturer's protocol. […] We monitored calcium mobilization following receptor stimulation with sweet tastants by an automated fluorometric imaging plate reader (FLIPR, Molecular Devices, Sunnyvale, CA). […] The obtained calcium signals were corrected for the response of mock transfected cells and normalized to the fluorescence of cells prior to the application of the stimulus using ΔF/F = (F-F0)/F0. Concentration-response curves and EC50 and IC50 values were calculated in SigmaPlot by nonlinear regression using the function f = ((a-d)/(1+(x/EC50)^nH)+d) and f = (a-b)/[1+(x/IC50)^nH]+b, respectively.

In experiment [2] the target is T2, hTAS1R2 + hTAS1R3 L782A^6.55 (Homo sapiens, UniProt Q7RTX0+Q8TE23, L782A).
T2 construct: expressed in transfected cells; host or cells: HEK293T cells stably expressing G16Gust44
T2 sequence (Q8TE23 20-839): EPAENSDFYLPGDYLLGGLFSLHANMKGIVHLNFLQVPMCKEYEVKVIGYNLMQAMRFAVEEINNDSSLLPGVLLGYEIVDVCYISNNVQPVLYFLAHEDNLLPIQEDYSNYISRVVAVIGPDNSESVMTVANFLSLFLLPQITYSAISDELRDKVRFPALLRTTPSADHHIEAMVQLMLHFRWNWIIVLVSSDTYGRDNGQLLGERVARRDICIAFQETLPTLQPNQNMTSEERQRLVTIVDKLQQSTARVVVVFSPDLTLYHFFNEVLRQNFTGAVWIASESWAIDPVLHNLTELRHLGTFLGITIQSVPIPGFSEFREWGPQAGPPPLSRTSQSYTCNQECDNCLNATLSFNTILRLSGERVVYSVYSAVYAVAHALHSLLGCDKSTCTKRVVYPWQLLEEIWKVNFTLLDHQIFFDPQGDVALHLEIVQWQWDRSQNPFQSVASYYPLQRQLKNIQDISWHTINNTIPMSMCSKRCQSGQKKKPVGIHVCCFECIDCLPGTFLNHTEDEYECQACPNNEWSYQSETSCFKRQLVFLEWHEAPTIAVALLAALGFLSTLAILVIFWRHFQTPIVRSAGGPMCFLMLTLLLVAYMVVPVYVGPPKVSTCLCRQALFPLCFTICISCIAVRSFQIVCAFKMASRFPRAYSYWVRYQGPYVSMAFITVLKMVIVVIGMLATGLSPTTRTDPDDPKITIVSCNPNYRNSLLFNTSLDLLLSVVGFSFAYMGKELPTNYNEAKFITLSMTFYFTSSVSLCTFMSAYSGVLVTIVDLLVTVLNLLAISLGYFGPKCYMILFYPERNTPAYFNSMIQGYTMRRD
T2 sequence (Q7RTX0 21-852 L782A): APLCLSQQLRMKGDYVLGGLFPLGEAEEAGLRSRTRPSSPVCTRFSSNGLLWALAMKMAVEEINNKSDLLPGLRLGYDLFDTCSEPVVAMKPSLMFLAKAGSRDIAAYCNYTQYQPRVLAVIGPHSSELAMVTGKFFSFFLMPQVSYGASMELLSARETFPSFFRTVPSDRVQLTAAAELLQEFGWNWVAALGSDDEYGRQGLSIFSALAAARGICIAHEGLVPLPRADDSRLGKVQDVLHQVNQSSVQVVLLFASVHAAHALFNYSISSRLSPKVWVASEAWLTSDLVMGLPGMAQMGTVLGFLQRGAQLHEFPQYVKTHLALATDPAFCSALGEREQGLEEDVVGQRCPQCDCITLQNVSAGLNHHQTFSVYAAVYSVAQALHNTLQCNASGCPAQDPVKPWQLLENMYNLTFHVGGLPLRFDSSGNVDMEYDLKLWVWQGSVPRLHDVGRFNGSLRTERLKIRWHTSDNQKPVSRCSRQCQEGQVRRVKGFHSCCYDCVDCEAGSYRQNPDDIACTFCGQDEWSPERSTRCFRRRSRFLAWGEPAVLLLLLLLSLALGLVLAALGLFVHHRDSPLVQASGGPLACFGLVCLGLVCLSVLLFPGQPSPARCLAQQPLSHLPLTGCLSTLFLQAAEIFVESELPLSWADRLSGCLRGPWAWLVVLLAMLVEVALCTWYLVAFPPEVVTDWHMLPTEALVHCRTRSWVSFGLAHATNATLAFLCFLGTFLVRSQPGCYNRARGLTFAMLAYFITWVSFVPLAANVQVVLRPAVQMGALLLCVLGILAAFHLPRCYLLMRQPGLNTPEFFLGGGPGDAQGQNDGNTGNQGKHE
The arrangement: method as in PMID 15668251. Particulars: mutation L782A^6.55; cited from earlier work.

T1 sequence (Q923K1 21-858): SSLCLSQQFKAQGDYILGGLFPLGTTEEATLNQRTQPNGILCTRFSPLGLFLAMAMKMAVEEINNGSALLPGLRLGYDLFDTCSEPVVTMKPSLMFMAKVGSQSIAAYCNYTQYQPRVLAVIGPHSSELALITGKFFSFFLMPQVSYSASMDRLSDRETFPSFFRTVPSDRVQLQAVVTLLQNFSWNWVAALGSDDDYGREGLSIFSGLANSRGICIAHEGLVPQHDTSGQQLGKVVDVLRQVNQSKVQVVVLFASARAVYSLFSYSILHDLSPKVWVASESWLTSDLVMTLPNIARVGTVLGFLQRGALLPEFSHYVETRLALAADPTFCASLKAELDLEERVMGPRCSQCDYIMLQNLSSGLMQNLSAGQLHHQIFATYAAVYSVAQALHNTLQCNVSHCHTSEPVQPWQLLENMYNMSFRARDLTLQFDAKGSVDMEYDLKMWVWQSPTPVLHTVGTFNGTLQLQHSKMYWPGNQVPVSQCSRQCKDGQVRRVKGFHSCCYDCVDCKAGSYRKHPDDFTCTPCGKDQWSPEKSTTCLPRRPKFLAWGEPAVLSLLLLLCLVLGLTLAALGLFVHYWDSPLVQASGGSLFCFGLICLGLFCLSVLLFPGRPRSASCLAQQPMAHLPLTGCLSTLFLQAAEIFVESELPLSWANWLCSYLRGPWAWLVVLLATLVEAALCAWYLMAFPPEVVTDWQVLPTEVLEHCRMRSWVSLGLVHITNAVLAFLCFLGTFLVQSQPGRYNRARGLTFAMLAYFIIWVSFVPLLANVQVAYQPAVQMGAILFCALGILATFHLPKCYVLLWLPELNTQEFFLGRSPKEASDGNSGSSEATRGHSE
T1 sequence (Q9Z0R7 20-843 partner): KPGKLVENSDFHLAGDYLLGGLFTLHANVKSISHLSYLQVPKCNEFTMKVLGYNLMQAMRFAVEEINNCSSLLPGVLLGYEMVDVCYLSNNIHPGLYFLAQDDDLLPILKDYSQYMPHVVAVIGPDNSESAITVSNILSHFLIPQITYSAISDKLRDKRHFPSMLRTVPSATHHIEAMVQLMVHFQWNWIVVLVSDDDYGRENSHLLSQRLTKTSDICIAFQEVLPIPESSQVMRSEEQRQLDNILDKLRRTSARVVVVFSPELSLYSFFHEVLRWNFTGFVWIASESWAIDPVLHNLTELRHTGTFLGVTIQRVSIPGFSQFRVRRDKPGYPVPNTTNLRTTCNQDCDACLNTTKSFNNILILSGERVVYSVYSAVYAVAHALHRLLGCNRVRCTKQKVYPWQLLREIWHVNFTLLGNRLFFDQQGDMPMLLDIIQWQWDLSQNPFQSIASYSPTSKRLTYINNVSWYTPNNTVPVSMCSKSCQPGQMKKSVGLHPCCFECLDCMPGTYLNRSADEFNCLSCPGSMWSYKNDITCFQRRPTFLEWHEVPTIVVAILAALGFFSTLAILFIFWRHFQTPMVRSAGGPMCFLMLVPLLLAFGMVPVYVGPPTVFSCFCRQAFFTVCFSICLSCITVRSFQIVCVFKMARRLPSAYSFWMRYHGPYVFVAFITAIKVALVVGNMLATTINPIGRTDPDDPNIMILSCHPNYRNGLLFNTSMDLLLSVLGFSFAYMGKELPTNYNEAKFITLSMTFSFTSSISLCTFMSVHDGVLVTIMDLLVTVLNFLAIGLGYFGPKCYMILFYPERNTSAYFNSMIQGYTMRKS

As to `COc1ccc(CCC(=O)c2c(O)cc(O[C@@H]3O[C@H](CO)[C@@H](O)[C@H](O)[C@H]3O[C@@H]3O[C@@H](C)[C@H](O)[C@@H](O)[C@H]3O)cc2O)cc1O` [NHDC, neohesperidin dihydrochalcone], the receptor activation result in experiment [1] was “not the rodent sweet taste receptor”.

With `O=S(=O)(O)NC1CCCCC1` [cyclamate], in experiment [2], the receptor activation result is reported as “abolished activation”.

The values above are taken from PMC2099433, “The binding site for neohesperidin dihydrochalcone at the human sweet taste receptor” (BMC Structural Biology, 2007).
